Measured values from patent US4536335A, “Carbapenem antibiotics” (Bristol-Myers Company, priority 1983, dated 1985).
In brackets after ≈: the same amount, converted by molar mass. Where two headings read alike, the source gives them in different places.

How the values were obtained:
Experiment in all cases: In vitro MIC, tube dilution
Assay type in all cases: cell-based
[1] = tested on: S. aureus A-9606 (Pen-res.); settings: Staphylococcus aureus, Nutrient Broth, overnight incubation at 37° C., additional data table, read-out: MIC S. aureus (Pen-res.) A-9606
K. pneumoniae A20468 = settings: Klebsiella pneumoniae, A20468, tube dilution, Nutrient Broth, overnight incubation at 37° C.; additional data table
S. aureus A-9537 = settings: Staphylococcus aureus, overnight incubation at 37° C., additional data table
E. coli A15119 = settings: Escherichia coli, A15119, tube dilution, Nutrient Broth, overnight incubation at 37° C.; additional data table
E. cloacae A-9656 = settings: Enterobacter cloacae, A9656, tube dilution, Nutrient Broth, overnight incubation at 37° C.; additional data table
K. pneumoniae A-9664 = settings: Klebsiella pneumoniae, A9664, tube dilution, Nutrient Broth, overnight incubation at 37° C.; additional data table
E. coli A20341-1 = settings: Escherichia coli, A203411, tube dilution, Nutrient Broth, overnight incubation at 37° C.; additional data table
P. aeruginosa A21213 = settings: Pseudomonas aeruginosa, A21213, tube dilution, Nutrient Broth, overnight incubation at 37° C.; additional data table
E. cloacae A-9659 = settings: Enterobacter cloacae, A9659, tube dilution, Nutrient Broth, overnight incubation at 37° C.; additional data table
From the text: N-formimidoyl thienamycin was included as a comparison compound.

SMILES: C[C@@H](O)[C@H]1C(=O)N2C(C(=O)[O-])=C(SCC[N+]3(C)CCN(C)CC3)C[C@H]12 [Example 4, (5R,6S)3-[2-(1,4-dimethyl-1-piperazinium)-ethylthio]-6-[1-(R)-hydroxyethyl]-7-oxo-1-azabicyclo-[3.2.0]hept-2-ene-2-carboxylate]
- MIC [1]: 0.06 µg/mL (≈ 0.162 µM)
- MIC (K. pneumoniae A20468): 0.5 µg/mL (≈ 1.35 µM)
- MIC (S. aureus A-9537; A9537, 50% serum, tube dilution, read-out: MIC S. aureus-50% serum A-9537): 0.06 µg/mL (≈ 0.162 µM)
- MIC (S. aureus A-9537; A9537, tube dilution, Nutrient Broth, read-out: MIC S. aureus A-9537): 0.03 µg/mL (≈ 0.0812 µM)
- MIC (E. coli A15119): 0.13 µg/mL (≈ 0.352 µM)
- MIC (E. cloacae A-9656): 2 µg/mL (≈ 5.41 µM)
- MIC (K. pneumoniae A-9664): 0.25 µg/mL (≈ 0.677 µM)
- MIC (E. coli A20341-1): 0.13 µg/mL (≈ 0.352 µM)
- MIC (P. aeruginosa A21213): 1 µg/mL (≈ 2.71 µM)
- MIC (E. cloacae A-9659): 1 µg/mL (≈ 2.71 µM)
